Experimental data: patent US12516056B2, “Compounds for inhibition of janus kinase 1” (MANKIND PHARMA LTD., priority 2019, dated 2026)
Counter-ions that a name gives are not always drawn. Like-named read-outs stand apart in the source and are kept apart here.

Columns and labels:
[1] = biological target: T1, Recombinant TYK2 (Homo sapiens, UniProt P29597); experiment: JAK biochemical assay (LANCE Ultra TR-FRET), TYK2; conditions: recombinant TYK2, TR-FRET; read-out: Biochemical Assay (μM) TYK2
T1 construct: purchased Carna Biosciences
Summary of the method: (§1)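 % inhibition relative to vehicle was derived from TR-FRET signal proportional to ULight-substrate phosphorylation. Reactions used recombinant kinase in HEPES pH 7.5 buffer containing EGTA, MgCl2, DTT and Tween-20.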

[2] = biological target: T2, Recombinant JAK2 (Homo sapiens, UniProt O60674); experiment: JAK biochemical assay (LANCE Ultra TR-FRET), JAK2; conditions: recombinant JAK2, TR-FRET; read-out: Biochemical Assay (μM) JAK2
T2 construct: purchased Carna Biosciences
Summary of the method: as §1

[3] = system: STAT3 phosphorylation by IL-6 in TF-1 cells; experiment: JAK cellular assay: STAT3 phosphorylation by IL-6 in TF-1 cells (HTRF); assay type: cell-based; conditions: IL-6 30 ng/ml, pSTAT3 HTRF, read-out: Cell Based Assay (μM) TF-1/IL-6/pSTAT3
Procedure: TF-1 cells were starved overnight in OptiMEM medium with 0.5% charcoal stripped fetal bovine serum, 0.1 mM nonessential amino acids (NEAA), 1 mM sodium pyruvate and without phenol red in CO2 incubator maintained at 37° c. Next day, cells were resuspended in RPMI without phenol red and dispensed into a 96 well plate at a final cell density of 1,20,000 cells per well. Compounds were diluted in DMSO and added to cells and incubated for 30 minutes in CO2 incubator maintained at 37° c. Final DMSO concentration in cell based assay was 0.2%. Human recombinant cytokines, IL-6 (30 ng/ml) and GMCSF (5 ng/ml) were added to the plate containing cells along with compound and incubated for 20 minutes with gentle tapping at every 5 minutes once. Compound mediated effects on STAT3 and STAT5 phosphorylation was measured in the lysates prepared by using CISBIO pSTAT3 and pSTAT5 detection kits by HTRF method. Background signal obtained from cells which were not activated with cytokines, was subtracted from vehicle controls and compound treated wells.

[4] = biological target: T3, Recombinant JAK3 (Homo sapiens, UniProt P52333); experiment: JAK biochemical assay (LANCE Ultra TR-FRET), JAK3; conditions: recombinant JAK3, TR-FRET; read-out: Biochemical Assay (μM) JAK3
T3 construct: purchased Carna Biosciences
T3 sequence (P52333 1-1124): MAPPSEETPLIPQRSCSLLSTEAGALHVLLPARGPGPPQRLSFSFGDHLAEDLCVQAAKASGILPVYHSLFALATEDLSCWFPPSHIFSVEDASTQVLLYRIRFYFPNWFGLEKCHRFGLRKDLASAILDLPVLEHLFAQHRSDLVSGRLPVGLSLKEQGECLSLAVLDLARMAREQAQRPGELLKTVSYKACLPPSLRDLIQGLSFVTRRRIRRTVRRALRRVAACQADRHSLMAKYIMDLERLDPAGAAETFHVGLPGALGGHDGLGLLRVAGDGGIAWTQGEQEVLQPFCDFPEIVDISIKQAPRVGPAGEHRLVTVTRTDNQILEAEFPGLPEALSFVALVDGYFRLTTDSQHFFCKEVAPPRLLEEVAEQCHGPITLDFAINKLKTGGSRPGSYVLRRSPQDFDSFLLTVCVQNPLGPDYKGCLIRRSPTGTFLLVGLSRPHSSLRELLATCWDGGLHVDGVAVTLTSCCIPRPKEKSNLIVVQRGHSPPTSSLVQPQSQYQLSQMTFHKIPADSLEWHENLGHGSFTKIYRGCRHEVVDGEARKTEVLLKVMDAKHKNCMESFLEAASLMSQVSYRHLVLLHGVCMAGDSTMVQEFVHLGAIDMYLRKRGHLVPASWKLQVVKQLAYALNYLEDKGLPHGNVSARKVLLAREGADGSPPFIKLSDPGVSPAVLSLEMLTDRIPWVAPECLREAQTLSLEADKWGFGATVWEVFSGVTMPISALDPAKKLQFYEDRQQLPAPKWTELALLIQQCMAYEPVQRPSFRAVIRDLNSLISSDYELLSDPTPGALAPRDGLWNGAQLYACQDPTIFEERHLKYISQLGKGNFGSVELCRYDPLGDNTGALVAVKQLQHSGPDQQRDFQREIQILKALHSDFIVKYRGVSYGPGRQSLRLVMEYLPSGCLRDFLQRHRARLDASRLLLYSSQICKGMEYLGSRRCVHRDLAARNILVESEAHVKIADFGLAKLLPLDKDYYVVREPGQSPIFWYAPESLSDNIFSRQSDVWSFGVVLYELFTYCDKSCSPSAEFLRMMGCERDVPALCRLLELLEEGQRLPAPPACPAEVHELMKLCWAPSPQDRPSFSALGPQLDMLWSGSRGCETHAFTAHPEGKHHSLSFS
Summary of the method: as §1

[5] = biological target: T4, Recombinant JAK1 (Homo sapiens, UniProt P23458); experiment: JAK biochemical assay (LANCE Ultra TR-FRET), JAK1; conditions: recombinant JAK1, TR-FRET; read-out: Biochemical Assay (μM) JAK1
T4 construct: purchased Carna Biosciences
Summary of the method: as §1

T1 sequence (P29597 whole entry): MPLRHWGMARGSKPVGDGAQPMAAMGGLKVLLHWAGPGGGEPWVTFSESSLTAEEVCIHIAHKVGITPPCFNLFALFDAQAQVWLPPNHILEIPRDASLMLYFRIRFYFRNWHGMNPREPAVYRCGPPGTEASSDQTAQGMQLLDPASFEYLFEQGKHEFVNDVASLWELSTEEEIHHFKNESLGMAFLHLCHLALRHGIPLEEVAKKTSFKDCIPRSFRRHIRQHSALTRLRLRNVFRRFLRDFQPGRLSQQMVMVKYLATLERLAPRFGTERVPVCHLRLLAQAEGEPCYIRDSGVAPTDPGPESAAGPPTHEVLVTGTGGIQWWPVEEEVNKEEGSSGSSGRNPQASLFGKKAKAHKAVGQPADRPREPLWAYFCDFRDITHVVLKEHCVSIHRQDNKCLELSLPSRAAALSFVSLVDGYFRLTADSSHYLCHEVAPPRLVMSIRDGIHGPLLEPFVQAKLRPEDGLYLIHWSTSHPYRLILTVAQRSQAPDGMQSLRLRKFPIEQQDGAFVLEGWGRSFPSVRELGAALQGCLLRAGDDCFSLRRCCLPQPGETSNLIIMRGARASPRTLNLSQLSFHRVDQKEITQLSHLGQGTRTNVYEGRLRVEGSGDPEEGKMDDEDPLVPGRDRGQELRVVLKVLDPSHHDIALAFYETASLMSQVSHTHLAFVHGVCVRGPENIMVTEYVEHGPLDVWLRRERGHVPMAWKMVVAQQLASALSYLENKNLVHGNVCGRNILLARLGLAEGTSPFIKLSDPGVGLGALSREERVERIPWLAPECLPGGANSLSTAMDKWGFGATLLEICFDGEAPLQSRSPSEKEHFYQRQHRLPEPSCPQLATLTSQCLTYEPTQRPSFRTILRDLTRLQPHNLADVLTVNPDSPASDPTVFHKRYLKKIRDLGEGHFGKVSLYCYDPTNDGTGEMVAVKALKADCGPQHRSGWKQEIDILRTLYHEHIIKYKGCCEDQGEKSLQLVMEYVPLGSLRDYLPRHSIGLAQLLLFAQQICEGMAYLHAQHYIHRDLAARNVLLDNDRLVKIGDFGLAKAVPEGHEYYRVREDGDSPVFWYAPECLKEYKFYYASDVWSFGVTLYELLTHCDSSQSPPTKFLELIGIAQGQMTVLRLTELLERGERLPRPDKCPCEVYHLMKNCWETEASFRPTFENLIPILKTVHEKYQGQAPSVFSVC
T2 sequence (O60674 whole entry): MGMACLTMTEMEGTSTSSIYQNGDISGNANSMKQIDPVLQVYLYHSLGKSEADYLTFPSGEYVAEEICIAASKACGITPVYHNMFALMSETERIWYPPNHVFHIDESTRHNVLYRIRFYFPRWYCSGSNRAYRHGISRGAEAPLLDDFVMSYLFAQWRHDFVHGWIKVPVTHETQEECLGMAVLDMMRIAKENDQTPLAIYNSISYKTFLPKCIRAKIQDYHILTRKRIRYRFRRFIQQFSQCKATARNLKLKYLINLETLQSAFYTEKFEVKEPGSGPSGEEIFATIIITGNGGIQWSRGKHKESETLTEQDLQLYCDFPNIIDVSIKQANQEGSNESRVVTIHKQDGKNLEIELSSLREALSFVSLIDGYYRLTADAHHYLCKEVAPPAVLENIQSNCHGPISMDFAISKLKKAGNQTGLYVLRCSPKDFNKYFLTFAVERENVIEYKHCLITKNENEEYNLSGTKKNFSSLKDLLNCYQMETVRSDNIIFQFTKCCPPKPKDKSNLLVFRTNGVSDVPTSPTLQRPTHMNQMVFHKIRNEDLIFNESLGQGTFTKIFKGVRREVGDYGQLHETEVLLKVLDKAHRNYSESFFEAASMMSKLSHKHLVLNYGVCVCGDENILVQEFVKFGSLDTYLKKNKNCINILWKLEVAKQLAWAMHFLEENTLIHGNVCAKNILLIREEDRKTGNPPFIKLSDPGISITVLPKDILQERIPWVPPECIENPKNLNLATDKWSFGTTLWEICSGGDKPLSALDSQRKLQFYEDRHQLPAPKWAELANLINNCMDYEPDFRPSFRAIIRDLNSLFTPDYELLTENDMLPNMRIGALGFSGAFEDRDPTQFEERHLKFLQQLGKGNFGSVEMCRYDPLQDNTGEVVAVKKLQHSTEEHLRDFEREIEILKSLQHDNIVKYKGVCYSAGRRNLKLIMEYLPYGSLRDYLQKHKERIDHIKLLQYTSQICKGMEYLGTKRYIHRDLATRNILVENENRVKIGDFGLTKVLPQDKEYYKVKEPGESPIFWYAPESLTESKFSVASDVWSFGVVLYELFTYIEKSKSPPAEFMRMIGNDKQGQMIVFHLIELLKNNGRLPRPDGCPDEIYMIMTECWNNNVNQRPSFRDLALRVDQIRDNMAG
T4 sequence (P23458 whole entry): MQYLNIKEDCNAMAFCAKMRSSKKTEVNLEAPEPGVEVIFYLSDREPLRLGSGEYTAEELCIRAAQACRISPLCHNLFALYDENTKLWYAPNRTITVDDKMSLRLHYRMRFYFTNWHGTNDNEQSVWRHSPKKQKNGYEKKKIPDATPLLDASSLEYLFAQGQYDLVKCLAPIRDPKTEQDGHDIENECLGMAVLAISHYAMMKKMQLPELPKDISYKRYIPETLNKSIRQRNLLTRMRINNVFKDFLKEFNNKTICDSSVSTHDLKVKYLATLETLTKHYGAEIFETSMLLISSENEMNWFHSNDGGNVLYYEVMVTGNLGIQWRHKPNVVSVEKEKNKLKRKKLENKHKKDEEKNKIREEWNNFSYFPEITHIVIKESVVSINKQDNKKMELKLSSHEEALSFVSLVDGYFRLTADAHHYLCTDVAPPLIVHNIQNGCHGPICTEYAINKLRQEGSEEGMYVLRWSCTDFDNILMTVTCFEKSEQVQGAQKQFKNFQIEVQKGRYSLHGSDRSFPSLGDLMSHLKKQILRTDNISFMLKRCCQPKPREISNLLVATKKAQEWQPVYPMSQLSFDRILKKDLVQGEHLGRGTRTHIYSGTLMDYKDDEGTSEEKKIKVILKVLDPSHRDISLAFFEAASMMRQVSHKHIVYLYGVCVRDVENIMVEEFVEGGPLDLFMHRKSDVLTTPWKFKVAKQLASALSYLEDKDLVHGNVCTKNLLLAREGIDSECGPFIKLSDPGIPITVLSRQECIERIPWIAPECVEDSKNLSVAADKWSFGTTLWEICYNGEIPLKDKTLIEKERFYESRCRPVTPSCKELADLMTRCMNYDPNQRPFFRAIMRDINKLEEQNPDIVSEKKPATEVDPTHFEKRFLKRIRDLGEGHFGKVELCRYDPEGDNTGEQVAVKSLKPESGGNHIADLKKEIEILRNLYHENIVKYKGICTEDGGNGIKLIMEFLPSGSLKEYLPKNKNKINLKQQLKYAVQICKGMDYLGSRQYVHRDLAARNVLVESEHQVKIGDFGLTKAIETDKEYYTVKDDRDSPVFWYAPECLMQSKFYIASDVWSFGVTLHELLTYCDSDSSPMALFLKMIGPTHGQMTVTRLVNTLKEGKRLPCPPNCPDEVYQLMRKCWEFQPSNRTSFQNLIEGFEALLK

SMILES | IC50 [1] [µM] | IC50 [2] [µM] | IC50 ([3]; Homo sapiens, TF-1, TF-1 cells) [µM] | IC50 [4] [µM] | IC50 [5] [µM] | IC50 ([3]; TF-1 cells, hydrochloride) [µM]
COCCC(C#N)NC(=O)n1cc(-c2ccnc3[nH]cnc23)cn1 (stereo not shown) [Example 1071, N-(1-cyano-3-methoxypropyl)-4-(3H-imidazo[4,5-b]pyridin-7-yl)-1H-pyrazole-1-carboxamide] | > 0.5 | > 0.5 | > 10 | > 0.5 | > 0.5 | 
N#CC1CCCCC1NC(=O)n1cc(-c2ccnc3[nH]cnc23)cn1 (stereo not shown) [Example 1066, N-(2-cyanocyclohexyl)-4-(3H-imidazo[4,5-b]pyridin-7-yl)-1H-pyrazole-1-carboxamide] | > 0.5 | > 0.5 | > 10 | > 0.5 |  | 
CC(C)NCC(c1ccc(-n2cc(-c3ccnc4[nH]cnc34)cn2)nc1)C(F)(F)F (stereo not shown) [Example 1218, 2-(6-(4-(3H-imidazo[4,5-b]pyridin-7-yl)-1H-pyrazol-1-yl)pyridin-3-yl)-3,3,3-trifluoro-N-isopropylpropan-1-amine] |  |  | > 0.5 |  |  | 
N#CCC(NC(=O)n1cc(-c2ccnc3[nH]c(=O)[nH]c23)cn1)C1CCCC1 (stereo not shown) [Example 1039, N-(2-cyano-1-cyclopentylethyl)-4-(2,3-dihydro-2-oxo-1H-imidazo[4,5-b]pyridin-7-yl)-1H-pyrazole-1-carboxamide] | < 0.5 | < 0.5 | 10 |  | < 0.5 | 
O=C(NCC(F)(F)F)Nc1ccc(-c2ccnc3[nH]c(=O)[nH]c23)cn1 [Example 1005, 1-(2,2,2-trifluoroethyl)-3-(5-(2,3-dihydro-2-oxo-1H-imidazo[4,5-b]pyridin-7-yl)pyridin-2-yl)urea] | > 1 |  | > 10 |  |  | 
N#CCc1ccc(-n2cc(-c3ccnc4[nH]cnc34)cn2)nc1 [Example 1082, 2-(6-(4-(3H-imidazo[4,5-b]pyridin-7-yl)-1H-pyrazol-1-yl)pyridin-3-yl)acetonitrile hydrochloride] |  | < 0.5 |  | < 0.5 | < 0.5 | > 1
CC(C)NCC[C@H](c1ccc(-n2cc(-c3ccnc4[nH]cnc34)cn2)nc1)C(F)(F)F [Example 1208, (R)-3-(6-(4-(3H-imidazo[4,5-b]pyridin-7-yl)-1H-pyrazol-1-yl)pyridin-3-yl)-4,4,4-trifluoro-N-isopropylbutan-1-amine] | > 0.5 | 0.01 | > 1 | 0.005 |  | 
O=C(N1CCN(c2ccnc3[nH]c(=O)[nH]c23)CC1)N1CCS(=O)(=O)CC1 [Example 1018, 7-(4-(1,1-dioxidothiomorpholine-4-carbonyl)piperazin-1-yl)-1,3-dihydro-2H-imidazo[4,5-b]pyridin-2-one] | > 10 | > 10 |  | > 10 | > 10 | 
N#CCC1CCN(C(=O)n2cc(-c3ccnc4[nH]c(=O)[nH]c34)cn2)C1 (stereo not shown) [Example 1057, 2-(1-(4-(2-oxo-2,3-dihydro-1H-imidazo[4,5-b]pyridin-7-yl)-1H-pyrazole-1-carbonyl)pyrrolidin-3-yl)acetonitrile] | > 1 | > 0.5 |  | > 0.5 | > 0.5 | 
CS(=O)(=O)N1CC(C(C#N)c2ccc(-n3cc(-c4ccnc5[nH]cnc45)cn3)nc2)C1 (stereo not shown) [Example 1115, 2-(6-(4-(3H-imidazo[4,5-b]pyridin-7-yl)-1H-pyrazol-1-yl)pyridin-3-yl)-2-(1-(methylsulfonyl)azetidin-3-yl)acetonitrile] | > 1 | > 0.5 |  | > 0.5 | > 0.5 | 
CCOc1nc2c(-c3cnn(C(=O)NCC(F)(F)F)c3)ccnc2[nH]1 [Example 1095, 4-(2-ethoxy-3H-imidazo[4,5-b]pyridin-7-yl)-N-(2,2,2-trifluoroethyl)-1H-pyrazole-1-carboxamide] | > 10 | < 1 |  | < 1 | < 1 | 
O=C(CCC(F)(F)F)n1cc(-c2ccnc3[nH]c(=O)[nH]c23)cn1 [Example 1031, 7-(1-(4,4,4-trifluorobutanoyl)-1H-pyrazol-4-yl)-1H-imidazo[4,5-b]pyridin-2(3H)-one] | > 1 | > 1 |  | > 1 | > 1 | 
COc1cc(-c2nc3c(-c4cnn(C5COCCC5C#N)c4)ccnc3[nH]2)ccc1Cl (stereo not shown) [Example 1097, 3-(4-(2-(4-chloro-3-methoxyphenyl)-3H-imidazo[4,5-b]pyridin-7-yl)-1H-pyrazol-1-yl)-tetrahydro-2H-pyran-4-carbonitrile] | > 1 | > 0.5 |  | > 10 | > 10 | 
N#CCNC(=O)n1cc(-c2ccnc3[nH]c(=O)[nH]c23)cn1 [Example 1035, N-(cyanomethyl)-4-(2,3-dihydro-2-oxo-1H-imidazo[4,5-b]pyridin-7-yl)-1H-pyrazole-1-carboxamide hydrochloride] | > 10 | > 10 |  | > 10 | > 10 | 
N#CCNC(=O)c1cnc(-n2cc(-c3ccnc4[nH]cnc34)cn2)nc1 [Example 1093, 2-(4-(3H-imidazo[4,5-b]pyridin-7-yl)-1H-pyrazol-1-yl)-N-(cyanomethyl)pyrimidine-5-carboxamide] | > 10 | < 0.5 |  | < 0.5 | > 0.5 | 
CS(=O)(=O)CCC(c1ccc(-n2cc(-c3ccnc4[nH]cnc34)cn2)nc1)C1COC1 (stereo not shown) [Example 1160, 7-(1-(5-(3-(methylsulfonyl)-1-(oxetan-3-yl)propyl)pyridin-2-yl)-1H-pyrazol-4-yl)-3H-imidazo[4,5-b]pyridine] | > 1 | > 0.5 |  | > 0.5 | > 0.1 | 
O=C(Nc1ccncc1)Nc1ccc(-c2ccnc3[nH]c(=O)[nH]c23)cc1 [Example 1009, 1-(4-(2,3-dihydro-2-oxo-1H-imidazo[4,5-b]pyridin-7-yl)phenyl)-3-(pyridin-4-yl)urea] | > 10 | > 0.5 |  | > 1 | > 10 | 
N#Cc1ccc(-n2cc(-c3ccnc4[nH]cnc34)cn2)nc1 [Example 1079, 6-(4-(3H-imidazo[4,5-b]pyridin-7-yl)-1H-pyrazol-1-yl)pyridine-3-carbonitrile] | > 10 | > 1 |  | > 1 | > 10 | 
O=C(NC1CCS(=O)(=O)CC1)N1CCN(c2ccnc3[nH]c(=O)[nH]c23)CC1 [Example 1020, N-(1,1-dioxidotetrahydro-2H-thiopyran-4-yl)-4-(2-oxo-2,3-dihydro-1H-imidazo[4,5-b]pyridin-7-yl)piperazine-1-carboxamide] | > 10 | > 10 |  | > 10 | > 10 | 
CS(=O)(=O)COC(c1ccc(-n2cc(-c3ccnc4[nH]cnc34)cn2)nc1)C(F)(F)F (stereo not shown) [Example 1140, 7-(1-(5-(1-((methylsulfonyl)methoxy)-2,2,2-trifluoroethyl)pyridin-2-yl)-1H-pyrazol-4-yl)-3H-imidazo[4,5-b]pyridine] | > 1 | < 0.1 |  | < 0.1 | < 0.1 | 
